According to patent publication US20110070326A1, “OREGANO EXTRACT AND ITS COMPONENTS FOR ENHANCING VIGILANCE” (DSM IP ASSETS B.V., priority 2006, published 2011):
Where “and” joins values, the source holds several entries; their conditions need not be identical. Identical values can stand only once.

Key:
[1] = Plasma level of free and total carvacrol after oral oregano extract 4 (LC/MS/MS); assay type: in vivo, rat; settings: individual animals
Protocol: 4 male and 4 female rats received a single dose of 800 mg of oregano extract 4 per kg body weight by oral gavage, respectively. The application solution was prepared in corn oil at a concentration of 200 mg extract per gram formulation.
The sample analysis was performed with a liquid chromatography—tandem mass spectrometry (LC/MS/MS) system, using a column switching system for online cleaning and desalting of the samples.
After addition of internal standard (D2-thymol) and protein precipitation (in case of “free” analyte) or pre-digesting by β-glucuronidase followed by protein precipitation (in case of “total” analyte), the samples were injected on a Waters XTerra™ MS C18 guard-column used as purification column, then transferred onto a Waters XTerra™ C18 column. Detection was performed using tandem mass spectrometry in MRM mode.
Calibration and quality control samples were prepared in 5% Albumin bovine serum solution and human plasma.

mouse = test: Light Dark Box Test in the mouse; assay type: in vivo; settings: 16 mg/kg i.p. −30 min; for NUMBER OF CROSSINGS mean ± s.e.m. / TIME SPENT IN LIGHT COMPARTMENT (s) mean ± s.e.m.: 3-minute test, 15 mice
Source text: The method, which detects anxiolytic activity, follows that described by Crawley, 1981 Pharmacol. Biochem. Behav., 15: 695-699. Anxiolytics increase the time spent in the light compartment.
Animals were placed into the light compartment of a 2-compartment box with one half light and open (25×27×27 cm) and the other half dark and closed (20×27×27 cm). The time spent in each compartment, as well as the number of times the animal crosses from one side to the other, is scored during a 3-minute test. 15 mice were studied per group. The test was performed blind.
Oregano extract 1 was evaluated at 3 doses (10, 30 and 60 mg/kg), administered i.p. 30 minutes before the test, and compared with a vehicle control group. Oregano extract 1 was dissolved in a saline solution containing 3% (v/v) DMSO and 3% (v/v) Tween® 80 (“vehicle”). The control group was administered vehicle, venlafaxine (16 mg/kg i.p) was used as comparison substance and clobazam (16 mg/kg i.p) was used as reference substance, all being administered i.p., 30 minutes prior to the test.

mice [2] = test: Marble burying test; assay type: in vivo, mouse; settings: for NUMBER OF MARBLES COVERED BY SAWDUST Mean ± s.e.m.: 25 marbles, 30-minute test, 15 mice
Protocol: The method applied here follows that described by Broekkamp et al. 1986, supra. Mice (n=15 per treatment group) were individually placed in transparent plastic cages (33×21×18 cm) with 5 cm of sawdust on the floor and 25 marbles (diameter 1 cm) grouped in the centre of the cage. A second, up-tamed, cage served as a lid. The number of marbles covered by sawdust (by at least two-thirds) was counted at the end of the 30-minute test period. Tests were performed by investigators blind to the drug treatment protocol.
Prior to testing, all test cages and marbles were “impregnated” by leaving 10 naive mice in each cage for 15 minutes.
Oregano extract 1 was evaluated at 10, 30 and 60 mg/kg, administered i.p. 30 minutes before the test, and compared with a vehicle control group. Oregano extract 1 was dissolved in a saline solution containing 3% (v/v) DMSO and 3% (v/v) Tween® 80 “vehicle”. The control group were administered vehicle in the same manner, while fluoxetine (32 mg/kg), administered under the same experimental conditions, was used as a reference substance. Data were analyzed by comparing treated groups with vehicle control using unpaired Student's t-tests.

[3] = tested on: hippocampal serotonin (5HT) levels; test: Hippocampal serotonin levels by in vivo microdialysis; design: species or system rat; settings: cumulative 5HT in dosing period, n = 5-6 rats
Protocol: Male Sprague-Dawley rats (250-320 g) were housed in groups of 4-5 under conditions of controlled temperature (21±2° C.) and humidity (55±10%) with free access to food and water (lights on 07.00-19.00). Rats were anaesthetised using chloral hydrate (400 mg/kg i.p.) and a single microdialysis probe (BASi type MD2200, 2 mm membrane, 30,000 dalton cut-off) implanted in the dorsal hippocampus using a stereotaxic frame at the following coordinates (rostro-caudal—4.5 mm; media-lateral—2.5 mm; dorso-ventral—4.5 mm from bregma and dura surface according to Paxinos & Watson 6) and fixed in position with dental cement. Body temperature was maintained at 36° C. using a heating pad and monitored via a digital rectal thermometer. The microdialysis probe was perfused with artificial cerebrospinal fluid (aCSF) at 1 μl/min and extracellular monoamine levels determined by collection of perfusate samples every 15 min and assayed using high-performance liquid chromatography (HPLC) with electrochemical detection.
The HPLC mobile phase (0.5 mM EDTA, 0.1M monochloroacetic acid pH 3.1, 0.15 g/L sodium octyl sulphate, 5% acetonitrile, 0.7% tetrahydrofuran) was pumped through the system at 70 μl/min. Monoamines were separated using a reverse-phase 1×100 mm ODS 3 mm microbore column with 5 μl injection loop and detected using a Epsilon electrochemical detector (BAST) with a glassy carbon electrode set at +650 mV versus Ag/AgCl reference electrode. Dialysate peaks were identified by comparing peak elution times with reference standards and quantified according to measurement of peak area using linear regression analysis. The detection limits for 5HT and SHIAA were defined as the sample amount producing a peak area twice that of the background noise per unit time and were approximately 0.1 fmol/sample in both cases. […]
For routine assay, two rats were prepared of which one was used to test the oregano extract and the other a control (vehicle) sample. […] Data from replicate studies for each compound are therefore expressed as % Basal level, as is normal practice for microdialysis studies. […]

mice [4] = test: Porsolt's Forced Swim Test (Behavioral Despair Test), i.p.; assay type: in vivo, mouse; settings: 16 mg/kg i.p., −30 min, 15 mice
Protocol: The test, which detects antidepressant activity, was carried out as described by Porsolt et al supra. Mice which are forced to swim in a situation from which they cannot escape rapidly become immobile. Antidepressants decrease the duration of immobility.
Mice were individually placed in cylinders (Height=24 cm, Diameter=13 cm) containing 10 cm water (22° C.) from which they could not escape. The mice were placed in the water for 6 minutes and the duration of immobility during the last 4 minutes was measured.
15 mice were studied per each of the four groups.
Oregano extract 1 was evaluated at 3 doses (10, 30 and 60 mg/kg), administered i.p. 30 minutes before the test, and compared with a control group, administered vehicle in the same manner. The thus administered […] was dissolved in vehicle (saline solution containing 3% (v/v) DMSO and 3% (v/v) Tween® 80). Venlafaxine (16 mg/kg, i.p.), as comparison substance, and imipramine (32 mg/kg, i.p.), as reference compound, were administered under the same experimental conditions.
Data were analyzed by comparing the treated groups with the control group using unpaired Student's t tests and are presented in Table 3.

## Cc1ccc(C(C)C)cc1O [Carvacrol]
[1]; female rats, 0.5 h after single 800 mg/kg oregano extract 4 by oral gavage in corn oil
  Free Carvacrol (ng/mL) in plasma: 5120 ng/mL and 4090 ng/mL and 50100 ng/mL and 30.9 ng/mL
[1]; female rats, 1 h after single 800 mg/kg oregano extract 4 by oral gavage in corn oil
  Free Carvacrol (ng/mL) in plasma: 6050 ng/mL and 3610 ng/mL and 192 ng/mL
[1]; female rats, 2 h after single 800 mg/kg oregano extract 4 by oral gavage in corn oil
  Free Carvacrol (ng/mL) in plasma: 840 ng/mL and 1360 ng/mL and 64.3 ng/mL
[1]; female rats, 3 h after single 800 mg/kg oregano extract 4 by oral gavage in corn oil
  Free Carvacrol (ng/mL) in plasma: 228 ng/mL and 174 ng/mL
[1]; female rats, 4 h after single 800 mg/kg oregano extract 4 by oral gavage in corn oil
  Free Carvacrol (ng/mL) in plasma: 246 ng/mL and 102 ng/mL and 50.3 ng/mL
[1]; female rats, 6 h after single 800 mg/kg oregano extract 4 by oral gavage in corn oil
  Free Carvacrol (ng/mL) in plasma: 135 ng/mL and 91.9 ng/mL and 48.3 ng/mL
[1]; female rats, 8 h after single 800 mg/kg oregano extract 4 by oral gavage in corn oil
  Free Carvacrol (ng/mL) in plasma: 159 ng/mL and 1630 ng/mL and <LOQ = 10.0 ng/mL
[1]; female rats, 24 h after single 800 mg/kg oregano extract 4 by oral gavage in corn oil
  Free Carvacrol (ng/mL) in plasma: 127 ng/mL and 8.91 ng/mL and <LOQ = 10.0 ng/mL
[1]; female, rat, plasma, po, 800 mg/kg, Free Carvacrol (ng/mL) in plasma, female rats, 3 h after single 800 mg/kg oregano extract 4 by oral gavage in corn oil
  concentration at 3 h: 128 ng/mL
[1]; male rats, 0.5 h after single 800 mg/kg oregano extract 4 by oral gavage in corn oil
  Free Carvacrol (ng/mL) in plasma: 1530 ng/mL and 103 ng/mL and 55.9 ng/mL and 1320 ng/mL
[1]; male rats, 1 h after single 800 mg/kg oregano extract 4 by oral gavage in corn oil
  Free Carvacrol (ng/mL) in plasma: 1150 ng/mL and 1820 ng/mL
[1]; male rats, 2 h after single 800 mg/kg oregano extract 4 by oral gavage in corn oil
  Free Carvacrol (ng/mL) in plasma: 166 ng/mL and 584 ng/mL and 199 ng/mL
[1]; male rats, 3 h after single 800 mg/kg oregano extract 4 by oral gavage in corn oil
  Free Carvacrol (ng/mL) in plasma: 51.5 ng/mL and 58.4 ng/mL and 1580 ng/mL
[1]; male rats, 4 h after single 800 mg/kg oregano extract 4 by oral gavage in corn oil
  Free Carvacrol (ng/mL) in plasma: 30.4 ng/mL and 40 ng/mL and 316 ng/mL
[1]; male rats, 6 h after single 800 mg/kg oregano extract 4 by oral gavage in corn oil
  Free Carvacrol (ng/mL) in plasma: 83.4 ng/mL and 980 ng/mL and 100 ng/mL
[1]; male rats, 8 h after single 800 mg/kg oregano extract 4 by oral gavage in corn oil
  Free Carvacrol (ng/mL) in plasma: 156 ng/mL and 140 ng/mL
[1]; male rats, 24 h after single 800 mg/kg oregano extract 4 by oral gavage in corn oil
  Free Carvacrol (ng/mL) in plasma: <LOQ = 10.0 ng/mL
[1]; male, rat, plasma, po, 800 mg/kg, Free Carvacrol (ng/mL) in plasma, male rats, 1 h after single 800 mg/kg oregano extract 4 by oral gavage in corn oil
  concentration at 1 h: 1790 ng/mL
[1]; male, rat, plasma, po, 800 mg/kg, Free Carvacrol (ng/mL) in plasma, male rats, 8 h after single 800 mg/kg oregano extract 4 by oral gavage in corn oil
  concentration at 8 h: 185 ng/mL
[1]; male, rat, plasma, po, 800 mg/kg, Free Carvacrol (ng/mL) in plasma, male rats, 24 h after single 800 mg/kg oregano extract 4 by oral gavage in corn oil
  concentration at 24 h: 68.1 ng/mL

## CN1C(=O)CC(=O)N(c2ccccc2)c2cc(Cl)ccc21 [Clobazam]
mouse
  NUMBER OF CROSSINGS % change from control: +68%
  TIME SPENT IN LIGHT COMPARTMENT % change from control: +114%
  NUMBER OF CROSSINGS mean ± s.e.m.: 7.9 ± 0.9
  TIME SPENT IN LIGHT COMPARTMENT (s) mean ± s.e.m.: 118.4 ± 3.4 s

## CNCCC(Oc1ccc(C(F)(F)F)cc1)c1ccccc1 (stereo not drawn) [Fluoxetine]
Mice [2]; 32 mg/kg i.p., −30 min
  NUMBER OF MARBLES COVERED BY SAWDUST % change from control: −93%
  NUMBER OF MARBLES COVERED BY SAWDUST Mean ± s.e.m.: 1.4 ± 1.0
[3]; 3 mg/kg i.p., injection 150 min post-surgery
  5-HT LEVEL (% basal) Mean ± s.e.m.: 85 ± 4 % basal
[3]; 10 mg/kg i.p., injection 210 min post-surgery
  5-HT LEVEL (% basal) Mean ± s.e.m.: 131 ± 9 % basal
[3]; 30 mg/kg i.p., injection 270 min post-surgery
  5-HT LEVEL (% basal) Mean ± s.e.m.: 160 ± 7 % basal

## COc1ccc(C(CN(C)C)C2(O)CCCCC2)cc1 (stereo not drawn) [Venlafaxine]
mouse
  NUMBER OF CROSSINGS % change from control: −6%
  TIME SPENT IN LIGHT COMPARTMENT % change from control: 0%
  NUMBER OF CROSSINGS mean ± s.e.m.: 4.4 ± 0.9
  TIME SPENT IN LIGHT COMPARTMENT (s) mean ± s.e.m.: 55.2 ± 9.3 s
Mice [2]; 16 mg/kg i.p. −30 min
  NUMBER OF MARBLES COVERED BY SAWDUST % change from control: −98%
Mice [2]; 16 mg/kg i.p., −30 min
  NUMBER OF MARBLES COVERED BY SAWDUST Mean ± s.e.m.: 0.5 ± 0.3
Mice [2]; 16 mg/kg i.p., −30 min, listed as venlafaxine
  NUMBER OF MARBLES COVERED BY SAWDUST % change from control: −98%
Mice [4]
  DURATION OF IMMOBILITY % change from control: −51%
  DURATION OF IMMOBILITY (s) Mean ± s.e.m.: 80.1 ± 11.1 s
Mice [4]; listed as venlafaxine
  DURATION OF IMMOBILITY % change from control: −51%
